Experimental findings from PubChem BioAssay (NCI) are described below.

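Tested at 5 concentrations; 48 h exposure; 96-well plates; endpoints linearly interpolated, else capped at highest concentration. GI50 marks 50% less growth. TGI: total growth inhibition.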

Some test systems named below: LOX IMVI melanoma; HCT-116 colon; HOP-62 NSCLC; SK-MEL-28 melanoma; UACC-257 melanoma; UO-31 renal; A498 renal; OVCAR-4 ovarian; NCI/ADR-RES ovarian; CAKI-1 renal.
Holding throughout (assay): NCI tumour cell line growth inhibition, 48 h

`CCOC(=O)/C(=C/c1ccccc1)C(=O)c1ccccc1`: the GI50 in the assay on LOX IMVI melanoma is 1.8 µM; with HCT-116 colon, 2.04 µM; in the assay with HOP-62 NSCLC it was 2.01 µM; with SK-MEL-28 melanoma it was 2.42 µM; in the assay on UACC-257 melanoma, 2.52 µM; with UO-31 renal, 1.76 µM. Also, the GI50 in the assay with A498 renal is 3.08 µM; with OVCAR-4 ovarian it was 14.4 µM; in the assay on NCI/ADR-RES ovarian, 3.6 µM; with CAKI-1 renal, 3.04 µM. The TGI with LOX IMVI melanoma came out at 3.82 µM; in the assay on HCT-116 colon, 4.39 µM; with HOP-62 NSCLC, 4.37 µM; in the assay with SK-MEL-28 melanoma it was 6.59 µM; in the assay with UACC-257 melanoma, 10.1 µM; with UO-31 renal, 3.55 µM. Moreover, the TGI in the assay on A498 renal worked out at 13.1 µM; in the assay with OVCAR-4 ovarian, 35.4 µM; in the assay on NCI/ADR-RES ovarian it was 70 µM; in the assay with CAKI-1 renal, 10.4 µM.

On to `COc1ccc(C2=CC(c3ccc(Oc4ccnc5cc(Cl)ccc45)c(OC)c3)c3c(nc(OC)[nH]c3=O)N2)cc1` (stereo not given), for which the GI50 with LOX IMVI melanoma was 4.04 µM; with HCT-116 colon, 3.62 µM; with HOP-62 NSCLC, 84.9 µM; in the assay on SK-MEL-28 melanoma it was 45.3 µM; in the assay on UACC-257 melanoma, 26.4 µM; in the assay with UO-31 renal, 5.97 µM. The GI50 in the assay on A498 renal was 48 µM; with OVCAR-4 ovarian, 6.69 µM; with NCI/ADR-RES ovarian it was 9.88 µM; in the assay with CAKI-1 renal, 15.5 µM. Also, the TGI was 67.2 µM in the assay with LOX IMVI melanoma; more than 100 µM in the assay with HCT-116 colon; more than 100 µM in the assay with HOP-62 NSCLC; more than 100 µM in the assay on SK-MEL-28 melanoma; more than 100 µM in the assay with UACC-257 melanoma; more than 100 µM in the assay on UO-31 renal. The TGI in the assay with A498 renal, in the assay on OVCAR-4 ovarian, with NCI/ADR-RES ovarian and with CAKI-1 renal was more than 100 µM throughout.

As for `CCc1nc(-n2c(CC)nc3ccccc3c2=O)nc(N)c1-c1ccc(Cl)cc1`, the GI50 in the assay on LOX IMVI melanoma was 6.91 µM; in the assay on HCT-116 colon, more than 26.2 µM; in the assay with HOP-62 NSCLC, 44.8 µM; in the assay with SK-MEL-28 melanoma it was more than 100 µM; in the assay with UACC-257 melanoma it was 13 µM; in the assay on UO-31 renal, 23.7 µM. For the same molecule, the GI50 was 27.2 µM in the assay on A498 renal, more than 100 µM in the assay with OVCAR-4 ovarian, 7.17 µM with NCI/ADR-RES ovarian and 22.3 µM in the assay with CAKI-1 renal. Besides, the TGI in the assay on LOX IMVI melanoma was more than 100 µM; in the assay with HCT-116 colon, more than 100 µM; with HOP-62 NSCLC, more than 100 µM; in the assay with SK-MEL-28 melanoma it was more than 100 µM; in the assay on UACC-257 melanoma, more than 94.3 µM; in the assay on UO-31 renal, more than 100 µM. Besides, the TGI in the assay on A498 renal was more than 94.5 µM; in the assay on OVCAR-4 ovarian, more than 100 µM; in the assay with NCI/ADR-RES ovarian it was more than 100 µM; in the assay on CAKI-1 renal, more than 84.3 µM.

On to `COc1ccccc1-c1ccc2nc(NC(=O)Nc3cc(C(F)(F)F)cc(C(F)(F)F)c3)sc2c1`, for which the GI50 is 1.68 µM in the assay with LOX IMVI melanoma; 1.07 µM in the assay with HCT-116 colon; 2.1 µM in the assay on HOP-62 NSCLC; 2.51 µM with SK-MEL-28 melanoma; 2.31 µM in the assay with UACC-257 melanoma; 1.79 µM in the assay on UO-31 renal. The GI50 was 1.64 µM in the assay with A498 renal, 2.12 µM in the assay with OVCAR-4 ovarian, 2.37 µM in the assay on NCI/ADR-RES ovarian and 2.33 µM in the assay on CAKI-1 renal. The TGI in the assay with LOX IMVI melanoma came out at 3.13 µM; in the assay with HCT-116 colon, 2.45 µM; with HOP-62 NSCLC, 4.99 µM; in the assay with SK-MEL-28 melanoma, 9.1 µM; in the assay with UACC-257 melanoma it was 6.52 µM; in the assay on UO-31 renal, 4.07 µM. Besides, the TGI in the assay with A498 renal came to 3.9 µM; with OVCAR-4 ovarian, 9.96 µM; in the assay on NCI/ADR-RES ovarian it was 7.19 µM; with CAKI-1 renal it was 6.35 µM.

For `Nc1ccc(-c2ccc(Nc3cc(S(=O)(=O)O)c(N)c4c3C(=O)c3ccccc3C4=O)cc2)c(S(=O)(=O)O)c1`, the TGI with LOX IMVI melanoma, in the assay with HCT-116 colon, in the assay on HOP-62 NSCLC, in the assay with SK-MEL-28 melanoma, in the assay with UACC-257 melanoma and in the assay with UO-31 renal was more than 100 µM throughout. The TGI in the assay on A498 renal, with OVCAR-4 ovarian, in the assay on NCI/ADR-RES ovarian and with CAKI-1 renal was more than 100 µM throughout.

In the case of `C=CCC(N[C@@H](CO)c1ccccc1)c1ccccn1` (stereo not given in full), the GI50 with LOX IMVI melanoma is more than 100 µM; in the assay with HCT-116 colon, more than 100 µM; with HOP-62 NSCLC, more than 100 µM; with SK-MEL-28 melanoma, more than 100 µM; in the assay on UACC-257 melanoma, 74.8 µM; in the assay on UO-31 renal, 93.4 µM. For the same molecule, the GI50 with A498 renal was 46.8 µM; in the assay with OVCAR-4 ovarian it was 25.6 µM; in the assay on NCI/ADR-RES ovarian, more than 100 µM; in the assay with CAKI-1 renal, more than 100 µM. Further, the TGI in the assay on LOX IMVI melanoma, in the assay with HCT-116 colon, in the assay on HOP-62 NSCLC, with SK-MEL-28 melanoma, with UACC-257 melanoma and with UO-31 renal was more than 100 µM in each case. Besides, the TGI in the assay on A498 renal, with OVCAR-4 ovarian, in the assay on NCI/ADR-RES ovarian and with CAKI-1 renal was more than 100 µM in each case.

Regarding `COc1ccc2c(O)c(/C=C3\N=Nc4ncccc43)oc2c1C[C@H]1CCNC[C@H]1F`, the GI50 in the assay on LOX IMVI melanoma is 0.304 µM; in the assay with HCT-116 colon it was 0.131 µM; in the assay on HOP-62 NSCLC, 0.409 µM; in the assay with SK-MEL-28 melanoma, 2.22 µM; in the assay on UACC-257 melanoma, 2.66 µM; with UO-31 renal it was 0.146 µM. Also, the GI50 is 0.238 µM with A498 renal, 0.566 µM with OVCAR-4 ovarian, 3.37 µM in the assay with NCI/ADR-RES ovarian and 0.161 µM in the assay with CAKI-1 renal. In addition, the TGI came to 1.78 µM in the assay on LOX IMVI melanoma; 2.15 µM in the assay on HCT-116 colon; 3.94 µM in the assay on HOP-62 NSCLC; 12 µM in the assay with SK-MEL-28 melanoma; 10.2 µM with UACC-257 melanoma; 3.16 µM in the assay on UO-31 renal. In addition, the TGI with A498 renal is 2.91 µM; in the assay with OVCAR-4 ovarian, 6.84 µM; with NCI/ADR-RES ovarian, 28.9 µM; in the assay with CAKI-1 renal it was 11.3 µM.

For the molecule `CCC(C(=O)c1cccs1)C(O)(C(F)(F)F)C(F)(F)F` (stereo not given), the TGI with LOX IMVI melanoma, with HCT-116 colon, in the assay with HOP-62 NSCLC, in the assay with SK-MEL-28 melanoma, in the assay with UACC-257 melanoma and with UO-31 renal was more than 100 µM throughout. Also, the TGI with A498 renal, in the assay on OVCAR-4 ovarian, in the assay with NCI/ADR-RES ovarian and in the assay on CAKI-1 renal was more than 100 µM throughout.

With `Cc1cc(O)c(C2=NN(c3ccc(S(N)(=O)=O)cc3)C(c3ccccc3O)C2)cc1Cl` (stereo not given), the GI50 was 1.63 µM with LOX IMVI melanoma; 1.57 µM in the assay on HCT-116 colon; 1.75 µM in the assay with HOP-62 NSCLC; 2.74 µM with SK-MEL-28 melanoma; 3.45 µM with UACC-257 melanoma; 0.181 µM in the assay on UO-31 renal. In addition, the GI50 was 1.69 µM in the assay on A498 renal, 2.89 µM in the assay with OVCAR-4 ovarian, 2.82 µM in the assay with NCI/ADR-RES ovarian and 1.67 µM with CAKI-1 renal. The TGI turned out to be 3.03 µM in the assay on LOX IMVI melanoma; 2.91 µM in the assay with HCT-116 colon; 3.68 µM with HOP-62 NSCLC; 6.8 µM in the assay on SK-MEL-28 melanoma; 8.74 µM in the assay with UACC-257 melanoma; 5.65 µM in the assay on UO-31 renal. The TGI came to 7.29 µM in the assay on A498 renal, 9.58 µM with OVCAR-4 ovarian, 8.84 µM in the assay on NCI/ADR-RES ovarian and 4.12 µM in the assay with CAKI-1 renal.

In the case of `Fc1c[c-]c(-c2ccccn2)c(F)c1.[CH3-].[Pt+2].c1ccc([PH+](c2ccccc2)c2ccccn2)cc1`, the GI50 was 1.28 µM with LOX IMVI melanoma; 1.3 µM in the assay with HCT-116 colon; 4.16 µM in the assay with HOP-62 NSCLC; 1.64 µM in the assay with SK-MEL-28 melanoma; 1.67 µM in the assay on UACC-257 melanoma; 1.08 µM with UO-31 renal. For the same molecule, the GI50 with A498 renal is 1.48 µM; in the assay on OVCAR-4 ovarian, 1.57 µM; in the assay on NCI/ADR-RES ovarian it was 1.81 µM; in the assay with CAKI-1 renal, 1.23 µM. Also, the TGI is 2.69 µM in the assay on LOX IMVI melanoma; 2.8 µM with HCT-116 colon; 44.2 µM in the assay with HOP-62 NSCLC; 3.15 µM in the assay with SK-MEL-28 melanoma; 5.07 µM with UACC-257 melanoma; 2.28 µM with UO-31 renal. Further, the TGI in the assay on A498 renal came out at 4.06 µM; with OVCAR-4 ovarian, 7.06 µM; with NCI/ADR-RES ovarian, 5.35 µM; with CAKI-1 renal it was 2.53 µM.

As to `COc1cc(OC)cc(-c2ccc(-c3ccc(C(=N)N)s3)s2)c1`, the GI50 with LOX IMVI melanoma is 0.221 µM; in the assay with HCT-116 colon it was 0.318 µM; in the assay with HOP-62 NSCLC, 1.81 µM; in the assay on SK-MEL-28 melanoma, 1.52 µM; in the assay with UACC-257 melanoma, 1.77 µM; in the assay on UO-31 renal, 1.51 µM. The GI50 is 1.46 µM with A498 renal, 1.44 µM in the assay on OVCAR-4 ovarian, 1.75 µM with NCI/ADR-RES ovarian and 1.38 µM with CAKI-1 renal. Also, the TGI with LOX IMVI melanoma was 0.495 µM; in the assay on HCT-116 colon it was 1.22 µM; with HOP-62 NSCLC it was 3.47 µM; in the assay with SK-MEL-28 melanoma, 3.51 µM; with UACC-257 melanoma, 3.36 µM; in the assay with UO-31 renal it was 3.31 µM. The TGI with A498 renal came to 3.05 µM; in the assay on OVCAR-4 ovarian it was 3.62 µM; in the assay with NCI/ADR-RES ovarian, 3.58 µM; with CAKI-1 renal, 2.78 µM.
